Assay results as given in PubChem BioAssay AID2401 (Southern Research Specialized Biocontainment Screening …, 2010).

Tested on: S. Typhimurium GFP reporter counter-screen, fluorescence, 4 h
Test: nmpC-GFP reporter counter-screen in S. Typhimurium, dose response, counter-screen for PhoP regulon inhibitor project, Salmonella Typhimurium, GFP fluorescence (AID 2401);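 further: S. typhimurium with Mg-insensitive nmpC-GFP reporter grown at 10 µM Mg2+; drop in reporter fluorescence reflects general culture growth inhibition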

Row | SMILES | IC50 [µM]
1 | Cc1ccc(C(=O)Sc2cccccc2=O)cc1 | 9.74
2 | Cc1ccc(Nc2cc(C)c3c(O)cccc3n2)cc1C | 75.3
3 | Fc1ccc(CCNCc2ccc(Cl)c(Cl)c2)cc1 | 80.6
4 | Cc1cc(/C=N/n2c(COc3ccccc3C)nc3ccccc3c2=O)c(O)c([N+](=O)[O-])c1 | 70.4
5 | C(=N\Nc1ccccn1)/c1cccnc1 | 21.5
6 | Cc1ccc(C(C[N+](=O)[O-])c2c(N)n(C)c(=O)n(C)c2=O)cc1 (stereo not given) | 15.1
7 | CCCCCOc1ccc(CSC(=N)N)cc1[N+](=O)[O-] | 46.8
8 | Nc1c(Cl)ncnc1N/N=C/c1ccccn1 | 25.5
9 | O=C(NC(CO)C(O)c1ccc([N+](=O)[O-])cc1)C(Cl)Cl (stereo not given) | 10.1
10 | O=C(N/N=C/c1ccc(Sc2ccccn2)o1)c1cc2ccccc2cc1O | 107
11 | CO[C@@]1(NC(=O)C2SC(=C(C(N)=O)C(=O)O)S2)C(=O)N2C(C(=O)O)=C(CSc3nnnn3C)CS[C@@H]21 (stereo not given in full) | 26.9
12 | c1ccc(C2CNCc3c2ccc2ccccc32)cc1 (stereo not given) | 138
13 | CCCCCCCSc1cc(OC)c(CCN(C)C)cc1OC | 57.2
14 | CCCCCc1ccc(OCCOCCn2c[n+](C)c3ccccc32)c(CCCCC)c1 | 63.2
15 | COC(=O)c1c(NC(=O)c2ccc([N+](=O)[O-])o2)sc2c1CCN(C(C)C)C2 | 69.3
16 | COc1cccc(Nc2nc(NCC3CCCO3)c3ccccc3n2)c1 (stereo not given) | 87.5
17 | CCCCCCCCCCCCCCCCn1cc[n+](C)c1 | 16.3
18 | CCN1/C(=C/C=C/C=C/c2sc3ccccc3[n+]2CC)Sc2ccccc21 | 17.8
19 | CCCNC1=C(C)C(=O)C2=C(C1=O)C(COC(N)=O)[C@]1(OC)C3NC3CN21 (stereo not given in full) | 128
20 | CCCCCCCCCCOC(=O)Cn1c(COc2ccccc2)[n+](C)c2ccccc21 | 19.2
21 | Cc1ccccc1NC(=O)CCC(=O)N/N=C/c1cc([N+](=O)[O-])ccc1O | 48.6
22 | Cc1ccc(C(C[N+](=O)[O-])c2c(C)cc3ccccn23)cc1 (stereo not given) | 65
23 | O=C(CSc1nc2ccccc2s1)N/N=C/c1cc([N+](=O)[O-])ccc1O | 88.4
24 | O=C(NCCNc1ccc([N+](=O)[O-])cc1C(F)(F)F)c1cccc(F)c1 | 106
25 | CC(C)C(=O)NC(c1cccc([N+](=O)[O-])c1)c1ccc2cccnc2c1O (stereo not given) | 51.7

Row | SMILES | IC50 [µM]
26 | CC(C(=O)c1ccc(-c2ccccc2)cc1)[n+]1cccc(NC(=O)c2ccccc2)c1 (stereo not given) | 76.6
27 | C/C(=C\C(=O)OCCCCCCCCC(=O)O)C[C@@H]1OC[C@H](C[C@@H]2O[C@H]2[C@@H](C)[C@H](C)O)[C@@H](O)[C@H]1O | 9.67
28 | Cc1nc(N)nc(N)c1/C=C/C(C)(C)c1ccc(Cl)cc1 | 8.11
29 | CCCCCCCCCCCCCCCC[N+](C)(C)CCN(Cc1ccc(OC)cc1)c1ncccn1 | 20.2
30 | CCNC(=S)NNC(=O)c1ccccn1 | 36.4
31 | CNc1nc(NCc2ccccc2)c2ccccc2n1 | 79.3
32 | C#CCOCCOCCOCCNc1nc(N2CCN(C(=O)CCCCCCCCCCNC(=O)[C@H]([C@@H](C)CC)n3cc(CCCCN=C(N)N)nn3)CC2)nc(N2CCN(C(=O)CCCCCCCCCCNC(=O)[C@H](CCCN=C(N)N)n3cc(C[C@@H](C)CC)nn3)CC2)n1 | 45.9
33 | CN(C)CCCNc1cc(C(C)(C)C)nc2c(-c3ccccc3)cnn12 | 53.6
34 | Cc1ccc(/C=C/C(=O)c2ccccc(=O)c2O)cc1C | 25
35 | S=c1nc(C2CCCCC2)[nH][nH]1 | 99
36 | O=C(O)CSc1cc(NS(=O)(=O)c2cccc([N+](=O)[O-])c2)c2ccccc2c1O | 83.5
37 | C/C(=N\N=C(N)N)c1ccc(Cl)c(Cl)c1 | 94.2
38 | O=C(N/N=C/c1cccs1)c1cccs1 | 67.8
39 | Cc1ccc(C(c2cc(Cl)c3cccnc3c2O)N2CCN(C)CC2)cc1 (stereo not given) | 33.5
40 | Oc1c(C(Nc2cccc(C(F)(F)F)c2)c2cccnc2)ccc2cccnc12 (stereo not given) | 39.3
41 | CCn1cc(C(=O)O)c(=O)c2cc(F)c(N3CCN(C(=S)NC(=O)c4ccccc4C)CC3)cc21 | 27.6
42 | CCCC(=O)NC(c1ccc(Cl)cc1)c1ccc2cccnc2c1O (stereo not given) | 108
43 | O=C(c1cccs1)c1no[n+]([O-])c1C(=O)c1cccs1 | 39.1
44 | Cc1ccc(-c2csc(N=C(N)N)n2)cc1 | 109
45 | CC[C@@H](C)[C@H](CNC)NC[C@@H](Cc1cccc2ccccc12)NCCc1cccc(C(F)(F)F)c1 | 32.3
46 | CN1CCN(CCCN2c3ccccc3Sc3ccc(Cl)cc32)CC1 | 51
47 | O=C(NC(CO)Cc1ccc([N+](=O)[O-])cc1)C(Cl)Cl (stereo not given) | 12.7
48 | O=C(/C=C/c1ccccc1Cl)c1ccccc(=O)c1O | 23.8
49 | O=C(N/N=C/c1ccc(O)cc1O)/C(=C/c1ccccc1)CCO | 124
50 | Clc1ccc(Cl)c(OCCCCNCc2ccccc2)c1 | 97.6

Row | SMILES | IC50 [µM]
51 | O=C(Cn1nc(CNc2ccc(Cl)cc2)[n+]2c1CCCCC2)c1ccc(Br)cc1 | 72.1
52 | Nc1nc2ccccc2n1CCOc1ccccc1Cl | 71.8
53 | Cc1cc(C)c(NC(=O)c2cn3c4c(c(N5CCN(C)CC5)c(F)cc4c2=O)OCC3C)c(C)c1 (stereo not given) | 34.2
54 | COc1cc([N+](=O)[O-])cc(/C=N\NC(=O)C2COc3ccccc3O2)c1O (stereo not given) | 85.3
55 | COc1cc(Cc2cc(N)nc(N)n2)cc(OC)c1OC | 0.74
56 | O=S1(=O)N=C(N/N=C/c2ccccn2)c2ccccc21 | 19.3
57 | CC[n+]1c(/C=C/c2ccc(N(C)C)cc2)ccc2ccccc21 | 37.3
58 | O=C1C=C(N2CCOCC2)c2ccccc2C1=O | 55.5
59 | CC[C@H]1OC(=O)C[C@@H](O)[C@H](C)[C@@H](O[C@@H]2O[C@H](C)C[C@H](N(C)C)[C@H]2O)[C@@H](CC=O)C[C@@H](C)C(=O)C=C[C@]2(C)O[C@H]2[C@@H]1C | 14.2
60 | COc1ccc(C(=O)N/N=C/c2sc3ccccc3c2O)cc1 | 41.5
61 | CC[C@H]1OC(=O)[C@H](C)[C@@H](O[C@H]2C[C@@](C)(OC)[C@@H](O)[C@H](C)O2)[C@H](C)[C@@H](O[C@@H]2O[C@H](C)C[C@H](N(C)C)[C@H]2O)[C@](C)(O)C[C@@H](C)CN(C)[C@H](C)[C@@H](O)[C@]1(C)O | 2.37
62 | CCn1cc(C(=O)NCCO)c(=O)c2cc(F)c(N3CCN(C)CC3)cc21 | 42.8
63 | COc1ccc2[nH]c3c(C)c4ccncc4c(C)c3c2c1 | 20.5
64 | C[C@H]1COc2c(N3CCN(C)CC3)c(F)cc3c(=O)c(C(=O)O)cn1c23 | 0.37
65 | Nc1ncn(C2O[C@H](CO)[C@@H](O)[C@H]2O)c(=O)n1 (stereo not given in full) | 30.8
66 | CCCCCCCCCCOC(=O)Cn1c(COc2ccc(C)cc2)[n+](C)c2ccccc21 | 19.8
67 | CCCCCCCOC(=O)C[N+](C)(C)CCOC1CC2CCC1(C)C2(C)C (stereo not given) | 20.1
68 | CN1CCN(C(c2ccccn2)c2cc(Cl)c3cccnc3c2O)CC1 (stereo not given) | 43.9
69 | O=c1cc2oc3cc(O)c(O)cc3c(-c3ccccc3[N+](=O)[O-])c-2cc1O | 28.5
70 | OC(c1cc(C(F)(F)F)nc2c(Cl)cc(Cl)cc12)C1CCCCN1 (stereo not given) | 80.5
71 | CC1COc2c(N3CCN(C)CC3)c(F)cc3c(=O)c(C(=O)O)cn1c23 (stereo not given) | 0.8
72 | O=CN/N=C/c1c(O)ccc2ccccc12 | 37.2
73 | C#CCOCCOCCOCCNc1nc(N2CCN(C(=O)CCCCCCCCCCNC(=O)[C@H]([C@@H](C)CC)n3cc(CCCCN=C(N)N)nn3)CC2)nc(N2CCN(C(=O)CCCCCCCCCCNC(=O)[C@H]([C@@H](C)CC)n3cc(CCCCN=C(N)N)nn3)CC2)n1 | 43.4
74 | Nc1nc(N2CCN(C/C=C/c3ccccc3)CC2)nc2ccccc12 | 107
75 | CCn1cc(C(=O)O)c(=O)c2cc(F)c(N3CCN(C(=S)NC(=O)c4ccccc4)CC3)cc21 | 29.8
